Our source for the IC50 values is patent publication US20160145247A1, “Aminomethyl-Biaryl Derivatives Complement Factor D inhibitors and uses thereof” (NOVARTIS AG, priority 2013, published 2016).

pIC50: −log10 of the molar value.

T1 sequence (P00746 26-253): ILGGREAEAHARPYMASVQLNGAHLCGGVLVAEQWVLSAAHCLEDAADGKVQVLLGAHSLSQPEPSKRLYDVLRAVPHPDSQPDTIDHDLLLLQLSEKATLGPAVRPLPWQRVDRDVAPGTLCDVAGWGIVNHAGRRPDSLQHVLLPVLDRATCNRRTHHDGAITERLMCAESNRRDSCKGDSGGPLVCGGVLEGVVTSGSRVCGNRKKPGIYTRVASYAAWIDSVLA

This assay has as its target T1, factor D (Homo sapiens, UniProt P00746).
T1 construct: made in house; host or cells: E. coli
Put plainly: factor D inhibition assay of Biological Example 2. Type of assay: biochemical.
For orientation: pIC50 means the negative decadic logarithm of the IC50, by convention in mol/L. `N[C@H](CO)c1cccc(-c2cc(COc3ccccc3CC(=O)O)cc(C(O)C3CCCCC3)c2)c1` (single isomer, unassigned) [116-I b) (tr = 6.3 min)] showed a negative logarithm of the IC50 (pIC50) of 7.62. In the case of `NCc1cccc(-c2ccc3c(c2)C(Oc2ccccc2CC(=O)O)CCC3)c1` (single isomer, unassigned) [175 b) (tr = 4.1 min), (+) or (−)-(2-((7-(3-(aminomethyl)phenyl)-1,2,3,4-tetrahydronaphthalen-1-yl)oxy)phenyl)acetic acid] it was 8.52. For the compound `NCc1cccc(-c2ccc3c(c2)C(Oc2ccccc2CC(=O)O)CCC3)c1` (single isomer, unassigned) [175 b) (tr = 9.5 min), (−) or (+)-(2-((7-(3-(aminomethyl)phenyl)-1,2,3,4-tetrahydronaphthalen-1-yl)oxy)phenyl)acetic acid], the pIC50 is 6.60. This pIC50 lies 1.92 log units lower than the previous one. In the case of `NCc1cccc(-c2ccc3c(c2)C(Oc2ccccc2CC(=O)O)CCO3)c1` (single isomer, unassigned) [177 b) (tr = 3.2 min), (+) or (−)-2-(2-((6-(3-(aminomethyl)phenyl)chroman-4-yl)oxy)phenyl)acetic acid] it was 8.40; in that of `NCc1cccc(-c2ccc3c(c2)C(Oc2ccccc2CC(=O)O)CCO3)c1` (single isomer, unassigned) [177 b) (tr = 8.8 min), (−) or (+)-2-(2-((6-(3-(aminomethyl)phenyl)chroman-4-yl)oxy)phenyl)acetic acid], 6.74; in that of `NC(CF)c1cccc(-c2cc(COc3ccccc3CC(=O)O)cc(CN3CCOCC3)c2)c1F` (single isomer, unassigned) [Example 217-D, (+) or (−)-2-(2-((3′-(1-Amino-2-fluoroethyl)-2′-fluoro-5-(morpholinomethyl)-[1,1′-biphenyl]-3-yl)methoxy)phenyl)acetic acid], 7.20. In the case of `NCc1cccc(-c2cccc(COc3ccccc3C(NC(=O)C3CC3c3ccccc3)C(=O)O)c2)c1` (single isomer, unassigned) [Example 297-B, 2-(2-((3′-(aminomethyl)-[1,1′-biphenyl]-3-yl)methoxy)phenyl)-2-(2-phenylcyclopropanecarboxamido)acetic acid] it was 8.22; in that of `NC(CF)c1cccc(-c2cccc(COc3ccccc3CC(=O)O)c2)c1` (single isomer, unassigned; (+)) [Example 190-B (+), (+)-2-(2-((3′-(1-amino-2-fluoroethyl)-[1, 1′-biphenyl]-3-yl)methoxy)phenyl)acetic acid], 8.05.

`NC(CF)c1cccc(-c2cc(COc3ccccc3CC(=O)O)cc(OC[C@H]3CCCO3)c2)c1F` (single isomer, unassigned; (+)) [Example 212-B]: the pIC50 was 8.22. The pIC50 values of the last two compounds are within 0.2 log units of each other.

As to `NC(CF)c1cccc(-c2cccc(COc3ccccc3CC(=O)O)c2)c1` (single isomer, unassigned; (-)) [Example 190-B (−), (−)-2-(2-((3′-(1-amino-2-fluoroethyl)-[1, 1′-biphenyl]-3-yl)methoxy)phenyl)acetic acid], the pIC50 is 6.67. This pIC50 is 1.55 log units lower than that of the compound before. As to `NC(CF)c1cccc(-c2cc(COc3ccccc3CC(=O)O)cc(OC[C@H]3CCCO3)c2)c1F` (single isomer, unassigned; (-)) [Example 212-A], the pIC50 was 8.22. This pIC50 lies 1.55 log units higher than the previous one. In the case of `NCc1cccc(-c2cc(N)c(F)c(COc3ccccc3CC(=O)O)c2)c1` [154-C a), 2-(2-((5-Amino-3′-(aminomethyl)-4-fluoro-[1,1′-biphenyl]-3-yl)methoxy)phenyl)acetic acid] it was 8.52. The result for `Nc1cc(-c2cccc([C@H](N)CO)c2)cc(COc2ccccc2CC(=O)O)c1F` [155 a), (S)-2-(2-((5-Amino-3′-(1-amino-2-hydroxyethyl)-4-fluoro-[1,1′-biphenyl]-3-yl)methoxy)phenyl)acetic acid] reads 8.52.
